pIC50: −log10 of the molar value. Several values for one entry are separate records, joined by “and”; a condition that tells them apart may be missing. Identical values can stand only once. Entries after “also recorded” stand apart in the source; their conditions may differ.

For data set [1] the following is noted: treated animals; cited from earlier work.
Data set [2] relates to monkeys. The settings on record: mean survival 25 months; cited from earlier work.
The nature of data set [3]: Superoxide elimination: cytochrome c reduction (hypoxanthine/xanthine oxidase). In kind it is biochemical. Conditions: for pIC50: superoxide from hypoxanthine/xanthine oxidase. Here is the method: (a) Superoxide was generated by oxidation of hypoxanthine by xanthine oxidase and assayed by reduction of cytochrome c (at absorbance maximum […]).
The ability of C3 to eliminate superoxide radical was assessed using three separate methods. In the first, O2 ? was generated by metabolism of hypoxanthine by xanthine oxidase (reaction 1). O2 ? production was determined by following cytochrome c reduction (absorbance max 550 nm) on a microtiter platereader as described (Quick et al., 2000). Stock solutions of cytochrome c were evaluated on a Beckman DU650 spectrophotometer to verify that that cytochrome c stock was fully oxidized prior to use, and to confirm the concentration of the stock. The reaction was run in the presence of superoxide dismutase (bovine SOD1, Sigma) to determine the non-specific reduction of cytochrome c (i.e. the rate of reaction in the absence of O2 ? ).

Data set [4] has as its target T1, xanthine oxidase (Homo sapiens, UniProt P47989). Briefly: Xanthine oxidase metabolism of hypoxanthine (purines by HPLC). In kind it is biochemical. As for the experimental part:
Hypoxanthine and its metabolites xanthine and uric acid were analyzed by HPLC at specific times during the xanthine oxidase: hypoxanthine reaction. The reaction was allowed to run for 40 or 100 minutes and was stopped by the addition of trifloroacetic acid (0.1% TFA) to denature xanthine oxidase. Samples were injected onto the HPLC and separated on a C18 column.

For data set [5], the system named is Drosophila. The settings on record: cited from earlier work.
The subject of data set [6] is Fisher 344 rats. The settings on record: cited from earlier work.
Data set [7] concerns C57B6 mice. Conditions: chronic treatment starting at 18 months of age; cited from earlier work.
Data set [8] concerns rats. Conditions: rats treated from age 96 weeks through end of life; control 147+/−1; cited from earlier work.
For data set [9], the system named is Fisher 344 rats. Conditions: same dose; cited from earlier work.
The nature of data set [10]: Oxygen consumption studies with H2O2 (re-evolution of oxygen). It is filed as biochemical.
In data set [11] the target is T1, xanthine oxidase. Briefly: O2 consumption during the xanthine oxidase reaction (Clark-type O2 electrode). Conditions: in the presence of C3 compared with SOD. It is filed as biochemical. As for the experimental part:
O2 consumption during the xanthine oxidase reaction was determined using an oxymetry chamber equipped with a Clark-type O2 electrode (Hansatech, UK).

A short description of data set [12]: Inhibition of pyrogallol autoxidation to purpurogallin. It is filed as biochemical. As for the experimental part: Pyrogallol autooxidation to purpurogallin was assayed as described. Briefly, Tris-cacodylic acid buffer (55.6 mM) buffer, pH 8.2, was prepared with 1 mM diethyltriaminopentaacetic acid (DTPA) (TCB solution). The pyrogallol solution contained 10 mM pyrogallol in 10 mM HCl. To 0.9 ml of TCB, 0.1 ml of pyrogallol solution was added, rapidly vortexed, and placed in the cuvette. The increase in absorbance at 420 nm was followed for 60 sec in a Beckman DU 650 spectrophotometer at room temperature. The rate of pyrogallol autoxidation in the presence of SOD (100 U/ml) was subtracted from that of the control reaction without SOD to determine the rate that was specifically due to reaction with O2 ? .

Data set [13] in a line: Characterization of C3 after exposure to H2O2 (HPLC, spectroscopy). Conditions: H2O2 20-200 mM; HPLC and spectroscopy. It is filed as physicochemical.
Data set [14] has as its system C57B6NIH male and female mice. Briefly: Longevity trial with mice (Kaplan-Meier survival, weights). It is filed as in vivo. As for the experimental part:
FIG. 4 illustrates the survival curve for mice treated by the process of the instant invention vs. control. […]. The date of spontaneous death for each mouse was recorded, and used to calculate the lifespan. Lifespan of each mouse was calculated in months because mice received from the NIA rodent colony have their birth month, but not their specific birth date, recorded. Average survival was calculated for each treatment and the mean lifespans were compared using a t-test with significance set to p<0.05 (actual p=0.033). The lifespan of control mice was 23.5±5.5 months (mean±SD, n=8) and of C3-treated mice was 28.7±3.4 (mean±SD, n=9). This calculation includes one C3-treated mouse which is still alive as of Feb. 21, 2002, and whose lifespan was included as of this date. Continued survival by this mouse will further increase the average difference in lifespan, and will decrease the p value (increase the significance). […].
Twelve month old C57B6NIH male and female mice (equal numbers) were purchased from the National Institute on Aging (NIA) Aging Rodent Colony. Mice shipped from this colony were not selected in any way for health, tumors or other disabilities, and all mice obtained from the colony were subsequently enrolled in the study. Mice were randomly placed in same-sex numbered cages, two per cage, ear-punched for identification, and weighed. Mice were then trained on a rotorod twice per week for three sessions, and were then tested on the rotorod in three sessions to measure motor performance at baseline. Cages were then assigned to receive either treatment A or treatment B by an observer who was blind to what these treatments would be.
Solution A or solution B was placed in the water bottles, and solutions were topped-off twice weekly, and filtered to remove any particulates biweekly by an individual blind to the identity of the solutions. At 19 months of age, mice were weighed again, and underwent another round of rotorod training and testing. Mice were allowed to die spontaneously, and their date of death were recorded by the Animal Housing Facility staff as part of the normal operating procedure of the facility. […] When animals died, the cage number, identity of the animal, and the date of death were recorded on the death notice, which was then sent to the laboratory, where the information was entered into the database.
In addition, because longevity was increased by the oral dosing of a drug, it is the first practical method for achieving increased longevity in metazoans.

The nature of data set [15]: Characterization of C3 after exposure to superoxide (HPLC, mass spectrometry). In kind it is physicochemical. An excerpt: Samples were then immediately injected onto the HPLC.
To maximize the amount of modified C3 present should structural changes occur, hexacarboxylic acid C3 and its decarboxylation products were exposed to superoxide generated by the xanthine oxidase reaction for four consecutive reactions by re-addition of the substrate, hypoxanthine. […] Compounds were extracted from the reaction mixture, and re-injected onto the HPLC. […] Peaks were collected and evaluated by mass spectrometry, but no changes in the molecular ions were observed.

Data set [16] can be described thus: Pharmacokinetics study in mice. In kind it is in vivo. An excerpt:
[…]. […] […].

T1 sequence (P47989 whole entry, species assumed): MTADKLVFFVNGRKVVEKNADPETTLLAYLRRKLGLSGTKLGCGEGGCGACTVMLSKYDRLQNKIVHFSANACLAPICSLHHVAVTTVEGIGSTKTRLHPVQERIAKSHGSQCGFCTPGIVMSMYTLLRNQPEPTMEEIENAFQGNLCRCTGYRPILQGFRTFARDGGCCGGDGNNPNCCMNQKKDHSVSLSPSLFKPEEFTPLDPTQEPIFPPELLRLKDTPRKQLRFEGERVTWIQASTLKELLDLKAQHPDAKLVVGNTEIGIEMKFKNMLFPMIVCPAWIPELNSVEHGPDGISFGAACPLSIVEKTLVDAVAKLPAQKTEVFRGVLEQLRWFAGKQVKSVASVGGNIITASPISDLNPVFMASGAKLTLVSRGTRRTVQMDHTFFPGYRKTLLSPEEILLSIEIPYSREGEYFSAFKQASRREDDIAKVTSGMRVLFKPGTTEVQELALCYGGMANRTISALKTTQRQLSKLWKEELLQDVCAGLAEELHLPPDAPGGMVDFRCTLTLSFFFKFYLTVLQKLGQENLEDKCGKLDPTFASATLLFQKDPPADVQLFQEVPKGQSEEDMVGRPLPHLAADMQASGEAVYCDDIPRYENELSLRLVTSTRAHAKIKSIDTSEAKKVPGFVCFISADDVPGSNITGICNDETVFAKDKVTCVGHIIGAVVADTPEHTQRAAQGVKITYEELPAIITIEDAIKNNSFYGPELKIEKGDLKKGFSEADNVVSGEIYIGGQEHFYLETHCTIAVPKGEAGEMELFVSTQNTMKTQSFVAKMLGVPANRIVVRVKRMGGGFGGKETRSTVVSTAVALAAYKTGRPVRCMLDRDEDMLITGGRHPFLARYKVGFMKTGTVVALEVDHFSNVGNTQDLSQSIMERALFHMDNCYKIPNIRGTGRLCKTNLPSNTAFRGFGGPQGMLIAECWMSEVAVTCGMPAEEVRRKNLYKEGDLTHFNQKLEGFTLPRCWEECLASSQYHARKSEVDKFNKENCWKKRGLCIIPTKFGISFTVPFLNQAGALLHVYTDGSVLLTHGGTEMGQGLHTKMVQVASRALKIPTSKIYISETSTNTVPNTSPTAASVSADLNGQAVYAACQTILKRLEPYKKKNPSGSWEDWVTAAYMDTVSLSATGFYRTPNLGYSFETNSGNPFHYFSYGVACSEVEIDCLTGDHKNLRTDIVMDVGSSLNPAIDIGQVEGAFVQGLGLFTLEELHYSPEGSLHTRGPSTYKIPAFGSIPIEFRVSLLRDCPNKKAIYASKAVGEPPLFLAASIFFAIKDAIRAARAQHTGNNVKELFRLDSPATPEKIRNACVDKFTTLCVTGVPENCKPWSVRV

For `O=CC[C@@H](O)[C@H](O)[C@H](O)CO` [2-deoxyglucose], in [1], the body temperature result is given as “lowered” and the plasma insulin levels result is “decreased”. For the same compound, the “lifespan of one treated monkey” value in data set [2] is listed as 38 months.

In data set [3], `O=C(O)c1ccc(/C2=C3\C=CC(=N3)/C(c3ccc(C(=O)O)cc3)=c3/cc/c4[n]3[Mn]([Cl])[n]3c2ccc3/C(c2ccc(C(=O)O)cc2)=C2/C=CC(=N2)\C=4c2ccc(C(=O)O)cc2)cc1` [MnTBAP, reference compound] gave a pIC50 of 4.30.

For `O=c1[nH]c(=O)c2c[nH]nc2[nH]1` [Oxypurinol, reference compound], in data set [4] (concentrations similar to those previously reported (data not shown)), the “inhibition of purine metabolism” value was “completely inhibit”.

Turning to `C#CCN(C)[C@H](C)Cc1ccccc1` [deprenyl], in data set [5], the effect on lifespan result is on record as “did not show an increase in lifespan”. The increase in longevity in [6] (not statistically significant) was 7%. In addition, the mean survival in [6] (treatment from 18 months of age, controls 28) is reported as 30 months. For the same compound, the survival benefit result in data set [7] is “failed to show any survival benefit”. Also, the lifespan in data set [8] is 198+/−2 weeks. Further, the “effect on mortality and lifespan” value in data set [9] is “greater mortality and shortened lifespan”.

Turning to “SOD: superoxide dismutase (bovine SOD1, Sigma) [reference compound]”, the “Reaction rate (k)” value in data set [3] (reaction with superoxide, cytochrome c reduction) came out at 2e+09 M⁻¹ s⁻¹. Also, in data set [3], the pIC50 is 6.30.

For the compound catalase [reference compound], in data set [10], the “re-evolution of oxygen from H2O2” value was “rapid re-evolution of oxygen”.

e,e,e C60[C(COOH)2]3 [C3]: the “inhibition of xanthine oxidase metabolism of hypoxanthine” value is recorded as below 10% in data set [4] (300 μM) and 15% in [4] (500 μM). Further, the “oxygen utilization by xanthine oxidase” value in data set [11] is on record as “similar”. Further, the pIC50 in data set [12] is 3.44; in data set [3], 3.48. For the same compound, in data set [3] (500 μM), the “concentration of superoxide in the reaction” value is recorded as “zero”. For the same compound, in data set [10], the “re-evolution of oxygen from H2O2” value is reported as “significantly slower than that seen with catalase”. In data set [13], the “structural change after exposure to H2O2” value is reported as “No change; also recorded: no change in the size or distribution of peaks; also recorded: no permanent chemical or structural changes”. For the same compound, the effect on weight result in data set [14] (C3-treated mice) was “not accompanied by a reduction in weight”. Further, the “lifespan (mean±SD)” value in data set [14] (C57B6 mice, C3 0.5 mg/kg/day in drinking water from age 12 months through end of life, n=9, control 23.5±5.5, 0.5 mg/kg/day) was 28.7±3.4 months and 28.7 months. Also, the “weight at 19 months, females” value in data set [14] (females, control 27±1) is recorded as 29+1 grams. Moreover, the “weight at 19 months, males” value in data set [14] (males, control 35±4) is 35±6 grams. For the same compound, the “structural change after exposure to superoxide” value in [15] is on record as “No change in the size or distribution of peaks; also recorded: no permanent chemical or structural changes”. In addition, the plasma half-life in data set [16] (mice) amounted to 8 h. The route of clearance result in data set [16] (mice) is “excretion through both the liver and kidney”. For the same compound, in [16] (oral (e.g. drinking water) relative to intravenous, intraperitoneal or subcutaneous), the “fraction of dose absorbed when given orally” value was 1/15.

Values taken from patent US20030162837A1, “Carboxyfullerenes and methods of use thereof” (priority 2002, published 2003).
